Measured values from patent publication US10202389B2, “Pyrazolopyrimidinyl inhibitors of ubiquitin-activating enzyme” (Millennium Pharmaceuticals, Inc., priority 2012, dated 2019).

target: recombinant human UAE (Homo sapiens (Human), UniProt P22314); assay: Ubiquitin Activating Enzyme (UAE) HTRF Assay; settings: read-out: % inhibition @0.111 μM
Sequence (P22314 whole entry): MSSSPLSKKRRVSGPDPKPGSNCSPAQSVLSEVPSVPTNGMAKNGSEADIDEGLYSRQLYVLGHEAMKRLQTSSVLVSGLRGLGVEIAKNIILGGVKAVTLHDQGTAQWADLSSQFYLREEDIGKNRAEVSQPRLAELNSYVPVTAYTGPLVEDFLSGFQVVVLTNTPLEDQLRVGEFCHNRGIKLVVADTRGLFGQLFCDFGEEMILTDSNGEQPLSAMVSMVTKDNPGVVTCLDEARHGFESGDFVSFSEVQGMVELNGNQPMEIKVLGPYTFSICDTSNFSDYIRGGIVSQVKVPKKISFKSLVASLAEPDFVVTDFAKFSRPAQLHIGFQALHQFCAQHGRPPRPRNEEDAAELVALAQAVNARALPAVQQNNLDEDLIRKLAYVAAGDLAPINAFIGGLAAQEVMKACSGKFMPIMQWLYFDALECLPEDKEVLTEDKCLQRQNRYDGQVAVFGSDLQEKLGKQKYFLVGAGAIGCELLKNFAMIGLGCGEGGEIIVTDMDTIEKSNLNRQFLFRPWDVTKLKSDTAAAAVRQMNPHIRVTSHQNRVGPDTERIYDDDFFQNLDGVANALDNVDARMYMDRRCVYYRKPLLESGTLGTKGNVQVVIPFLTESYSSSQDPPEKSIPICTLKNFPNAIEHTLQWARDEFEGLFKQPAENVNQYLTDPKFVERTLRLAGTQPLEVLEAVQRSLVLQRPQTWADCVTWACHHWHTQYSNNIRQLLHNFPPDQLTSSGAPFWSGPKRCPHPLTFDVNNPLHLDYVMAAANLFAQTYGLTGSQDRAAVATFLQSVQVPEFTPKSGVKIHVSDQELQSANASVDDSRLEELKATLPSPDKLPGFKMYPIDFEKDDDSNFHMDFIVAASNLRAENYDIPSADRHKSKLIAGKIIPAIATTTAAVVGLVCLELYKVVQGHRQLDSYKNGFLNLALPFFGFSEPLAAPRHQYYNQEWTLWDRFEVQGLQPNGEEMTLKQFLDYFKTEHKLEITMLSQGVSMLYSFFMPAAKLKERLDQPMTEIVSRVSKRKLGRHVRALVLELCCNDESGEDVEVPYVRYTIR
Protocol: After incubation for 120 minutes, quantification of the FRET is performed on the Pherostar (BMG).
For compounds whose values are marked with an asterisk (*), mouse UAE was used. For all other compounds, human UAE was used.

inhibition at 0.111 µM [%]	Compound
96	CC1(C)COc2c(-c3cc4nccc(N[C@@H]5C[C@H](COS(N)(=O)=O)[C@@H](O)[C@H]5O)n4n3)cccc21 (relative stereo) [Compound I-023, (rac)-((1R,2R,3S,4R)-4-(2-(3,3-dimethyl-2,3-dihydrobenzofuran-7-yl)pyrazolo[1,5-a]pyrimidin-7-ylamino)-2,3-dihydroxycyclopentyl)methyl rel-sulfamate]
98	NS(=O)(=O)OC[C@H]1C[C@@H](Nc2ccnc3cc(-c4ccc(C(F)(F)F)c5cccnc45)nn23)[C@H](O)[C@@H]1O (relative stereo) [Compound I-033, (rac)-((1R,2R,3S,4R)-2,3-dihydroxy-4-(2-(5-(trifluoromethyl)quinolin-8-yl)pyrazolo[1,5-a]pyrimidin-7-ylamino)cyclopentyl)methyl rel-sulfamate]
100	Cc1ccc(-c2cc3nccc(N[C@@H]4C[C@H](COS(N)(=O)=O)[C@@H](O)[C@H]4O)n3n2)c2ccccc12 [Compound I-115, (s.e.)-((1R,2R,3S,4R)-2,3-dihydroxy-4-(2-(4-methylnaphthalen-1-yl)pyrazolo[1,5-a]pyrimidin-7-ylamino)cyclopentyl)methyl sulfamate]
100	NS(=O)(=O)OC[C@H]1C[C@@H](Nc2ccnc3cc(-c4ccc5cc(F)ccc5c4)nn23)[C@H](O)[C@@H]1O [Compound I-113, (s.e.)-((1R,2R,3S,4R)-4-(2-(6-fluoronaphthalen-2-yl)pyrazolo[1,5-a]pyrimidin-7-ylamino)-2,3-dihydroxycyclopentyl)methyl sulfamate]
100	NS(=O)(=O)OC[C@H]1C[C@@H](Nc2ccnc3cc(-c4c[nH]c5ccc(Cl)cc45)nn23)[C@H](O)[C@@H]1O (relative stereo) [Compound I-054, (rac)-[(1R,2R,3S,4R)-4-{[2-(5-chloro-1H-indol-3-yl)pyrazolo[1,5-a]pyrimidin-7-yl]amino}-2,3-dihydroxycyclopentyl]methyl rel-sulfamate]
100	NS(=O)(=O)OC[C@H]1C[C@@H](Nc2ccnc3cc(-c4cccc(-c5ccccn5)c4)nn23)[C@H](O)[C@@H]1O (relative stereo) [Compound I-036, (rac)-((1R,2R,3S,4R)-2,3-Dihydroxy-4-((2-(3-(pyridin-2-yl)phenyl)pyrazolo[1,5-a]pyrimidin-7-yl)amino)cyclopentyl)methyl rel-sulfamate]
100	NS(=O)(=O)OC[C@H]1C[C@@H](Nc2ccnc3cc(-c4ccc5[nH]c6ccccc6c5c4)nn23)[C@H](O)[C@@H]1O (relative stereo) [Compound I-037, (rac)-[(1R,2R,3S,4R)-4-{[2-(9H-carbazol-3-yl)pyrazolo[1,5-a]pyrimidin-7-yl]amino}-2,3-dihydroxycyclopentyl]methyl rel-sulfamate]
75	NS(=O)(=O)OC[C@H]1C[C@@H](Nc2ccnc3cc(-c4ccccc4SC(F)(F)F)nn23)[C@H](O)[C@@H]1O (relative stereo) [Compound I-079, (rac)-((1R,2R,3S,4R)-2,3-dihydroxy-4-(2-(2-(trifluoromethylthio)phenyl)pyrazolo[1,5-a]pyrimidin-7-ylamino)cyclopentyl)methyl rel-sulfamate]
28	NS(=O)(=O)OC[C@H]1C[C@@H](Nc2cc(Cl)nc3cc(-c4ccc(Br)cc4)nn23)[C@H](O)[C@@H]1O (relative stereo) [Compound I-008, (rac)-((1R,2R,3S,4R)-4-(2-(4-bromophenyl)-5-chloropyrazolo[1,5-a]pyrimidin-7-ylamino)-2,3-dihydroxycyclopentyl)methyl rel-sulfamate]
100	CCOC(C)(C)c1cccc(-c2cc3nccc(N[C@@H]4C[C@H](COS(N)(=O)=O)[C@@H](O)[C@H]4O)n3n2)c1 (relative stereo) [Compound I-084, (rac)-((1R,2R,3S,4R)-4-(2-(3-(2-ethoxypropan-2-yl)phenyl)pyrazolo[1,5-a]pyrimidin-7-ylamino)-2,3-dihydroxycyclopentyl)methyl rel-sulfamate]
100	NS(=O)(=O)OC[C@H]1C[C@@H](Nc2ccnc3cc(-c4cccc5cnccc45)nn23)[C@H](O)[C@@H]1O (relative stereo) [Compound I-027, (rac)-((1R,2R,3S,4R)-2,3-dihydroxy-4-(2-(isoquinolin-5-yl)pyrazolo[1,5-a]pyrimidin-7-ylamino)cyclopentyl)methyl rel-sulfamate]
100	NS(=O)(=O)OC[C@H]1C[C@@H](Nc2ccnc3cc(-c4cccc5ccccc45)nn23)[C@H](O)[C@@H]1O [Compound I-098, (s.e.)-((1R,2R,3S,4R)-2,3-dihydroxy-4-{[2-(1-naphthyl)pyrazolo[1,5-a]pyrimidin-7-yl]amino}cyclopentyl)methyl sulfamate]
100	NS(=O)(=O)OC[C@H]1C[C@@H](Nc2ccnc3cc(-c4coc5ccc(Cl)cc45)nn23)[C@H](O)[C@@H]1O (relative stereo) [Compound I-092, (rac)-((1R,2R,3S,4R)-4-(2-(5-chlorobenzofuran-3-yl)pyrazolo[1,5-a]pyrimidin-7-ylamino)-2,3-dihydroxycyclopentyl)methyl rel-sulfamate]
100	COc1ccc(OC(F)(F)F)cc1-c1cc2nccc(N[C@@H]3C[C@H](COS(N)(=O)=O)[C@@H](O)[C@H]3O)n2n1 (relative stereo) [Compound I-066, (rac)-((1R,2R,3S,4R)-2,3-Dihydroxy-4-((2-(2-methoxy-5-(trifluoromethoxy)-phenyl)pyrazolo[1,5-a]pyrimidin-7-yl)amino)cyclopentyl)methyl rel-sulfamate]
100	NS(=O)(=O)OC[C@H]1C[C@@H](Nc2ccnc3cc(-c4cccc5cc(C(F)F)ccc45)nn23)[C@H](O)[C@@H]1O [Compound I-111, (s.e.)-((1R,2R,3S,4R)-4-(2-(6-(difluoromethyl)naphthalen-1-yl)pyrazolo[1,5-a]pyrimidin-7-ylamino)-2,3-dihydroxycyclopentyl)methyl sulfamate]
99	COc1cc(F)ccc1-c1cc2nccc(N[C@@H]3C[C@H](COS(N)(=O)=O)[C@@H](O)[C@H]3O)n2n1 (relative stereo) [Compound I-070, (rac)-((1R,2R,3S,4R)-4-(2-(4-fluoro-2-methoxyphenyl)pyrazolo[1,5-a]pyrimidin-7-ylamino)-2,3-dihydroxycyclopentyl)methyl rel-sulfamate]
100	COc1ccc(-c2cc3nccc(N[C@@H]4C[C@H](COS(N)(=O)=O)[C@@H](O)[C@H]4O)n3n2)c2ccccc12 [Compound I-106, (s.e.)-((1R,2R,3S,4R)-2,3-dihydroxy-4-(2-(4-methoxynaphthalen-1-yl)pyrazolo[1,5-a]pyrimidin-7-ylamino)cyclopentyl)methyl sulfamate]
50	NS(=O)(=O)OC[C@H]1C[C@@H](Nc2c(Cl)cnc3cc(-c4cccc(SC(F)(F)F)c4)nn23)[C@H](O)[C@@H]1O [Compound I-125, (s.e.)-{(1R,2R,3S,4R)-4-[(6-chloro-2-{3-[(trifluoromethyl)sulfanyl]phenyl}pyrazolo[1,5-a]pyrimidin-7-yl)amino]-2,3-dihydroxycyclopentyl}methyl sulfamate]
100	NS(=O)(=O)OC[C@H]1C[C@@H](Nc2ccnc3cc(-c4cccc(SCC5CC5)c4)nn23)[C@H](O)[C@@H]1O (relative stereo) [Compound I-076, (rac)-((1R,2R,3S,4R)-4-(2-(3-(cyclopropylmethylthio)phenyl)pyrazolo[1,5-a]pyrimidin-7-ylamino)-2,3-dihydroxycyclopentyl)methyl rel-sulfamate]
100	NS(=O)(=O)OC[C@H]1C[C@@H](Nc2ccnc3cc(-c4ccc5c(c4)[nH]c4ccccc45)nn23)[C@H](O)[C@@H]1O (relative stereo) [Compound I-062, (rac)-[(1R,2R,3S,4R)-4-{[2-(9H-carbazol-2-yl)pyrazolo[1,5-a]pyrimidin-7-yl]amino}-2,3-dihydroxycyclopentyl]methyl rel-sulfamate]
99	NS(=O)(=O)OC[C@H]1C[C@@H](Nc2ccnc3cc(-c4cccc(Br)c4)nn23)[C@H](O)[C@@H]1O (relative stereo) [Compound I-028, (rac)-((1R,2R,3S,4R)-4-((2-(3-Bromophenyl)pyrazolo[1,5-a]pyrimidin-7-yl)amino)-2,3-dihydroxycyclopentyl)methyl rel-sulfamate]
91	NS(=O)(=O)OC[C@H]1C[C@@H](Nc2ccnc3cc(-c4cccc(C(=O)c5ccccc5)c4)nn23)[C@H](O)[C@@H]1O (relative stereo) [Compound I-073, (rac)-((1R,2R,3S,4R)-4-(2-(3-benzoylphenyl)pyrazolo[1,5-a]pyrimidin-7-ylamino)-2,3-dihydroxycyclopentyl)methyl rel-sulfamate]
100	COc1ccc2ccccc2c1-c1cc2nccc(N[C@@H]3C[C@H](COS(N)(=O)=O)[C@@H](O)[C@H]3O)n2n1 [Compound I-104, (s.e.)-((1R,2R,3S,4R)-2,3-dihydroxy-4-(2-(2-methoxynaphthalen-1-yl)pyrazolo[1,5-a]pyrimidin-7-ylamino)cyclopentyl)methyl sulfamate]
100	Cc1sc(-c2ccccc2)nc1-c1cc2nccc(N[C@@H]3C[C@H](COS(N)(=O)=O)[C@@H](O)[C@H]3O)n2n1 (relative stereo) [Compound I-038, (rac)-[(1R,2R,3S,4R)-2,3-dihydroxy-4-{[2-(5-methyl-2-phenyl-1,3-thiazol-4-yl)pyrazolo[1,5-a]pyrimidin-7-yl]amino}cyclopentyl]methyl rel-sulfamate]
100	COC(C)(C)c1cccc(-c2cc3nccc(N[C@@H]4C[C@H](COS(N)(=O)=O)[C@@H](O)[C@H]4O)n3n2)c1 (relative stereo) [Compound I-082, (rac)-((1R,2R,3S,4R)-2,3-dihydroxy-4-(2-(3-(2-methoxypropan-2-yl)phenyl)pyrazolo[1,5-a]pyrimidin-7-ylamino)cyclopentyl)methyl rel-sulfamate]
